Assay results: ChEMBL document CHEMBL1201862, “PubChem BioAssay data set” (2004)
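In this assay, cells in 96-well plates receive the compound at five concentrations for 48 hours. Endpoints are linearly interpolated between the surrounding concentrations. The concentration for 50% growth inhibition is given as GI50.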 Calls of active or inactive are those of the source. Cut-off read from the data, not from the text of the source: active = GI50 up to about 1.1 µM and inactive = higher.

Tests used:
Assay in all cases: NCI anticancer screen, dose series, 48 h
[1] = system: CCRF-CEM
[2] = system: HOP-62
[3] = system: HT-29
[4] = system: IGROV-1
[5] = system: LOX IMVI
[6] = system: Malme-3M
[7] = system: NCI-H226
[8] = system: NCI-H23
[9] = system: NCI/ADR-RES
[10] = system: OVCAR-5
[11] = system: OVCAR-8
[12] = system: PC-3
[13] = system: SF-295
[14] = system: SK-MEL-2
[15] = system: SN12C
[16] = system: SNB-19
[17] = system: TK-10
[18] = system: A498
[19] = system: HOP-92

SMILES	GI50 [1]	GI50 [2]	GI50 [3]	GI50 [4]	GI50 [5]	GI50 [6]	GI50 [7]	GI50 [8]	GI50 [9]	GI50 [10]	GI50 [11]	GI50 [12]	GI50 [13]	GI50 [14]	GI50 [15]	GI50 [16]	GI50 [17]	GI50 [18]	GI50 [19]
O=C(CSc1nc2nncc-2c(O)[nH]1)c1ccc(Cl)cc1	> 100 µM (inactive)	> 100 µM (inactive)	> 100 µM (inactive)	> 100 µM (inactive)	> 100 µM (inactive)	> 100 µM (inactive)	> 100 µM (inactive)	> 100 µM (inactive)	> 100 µM (inactive)	> 100 µM (inactive)	> 100 µM (inactive)	> 100 µM (inactive)	> 100 µM (inactive)	75.3 µM (inactive)	> 100 µM (inactive)	> 100 µM (inactive)	> 100 µM (inactive)	–	–
O=c1cc(-c2ccccc2)nc(-n2[nH]c3c(c2=O)CCCC3)[nH]1	0.769 µM (active)	–	4.31 µM (inactive)	4.53 µM (inactive)	–	11.1 µM (inactive)	3.82 µM (inactive)	7.33 µM (inactive)	–	92.5 µM (inactive)	–	5 µM (inactive)	4.33 µM (inactive)	2.36 µM (inactive)	10.8 µM (inactive)	11 µM (inactive)	5 µM (inactive)	17.6 µM (inactive)	2.85 µM (inactive)
O=C(/C=C/c1ccc(OCC(=O)N2CCN(c3ccccc3)CC2)cc1)c1ccccc1	2.84 µM (inactive)	32.8 µM (inactive)	4.33 µM (inactive)	32.9 µM (inactive)	3.68 µM (inactive)	15 µM (inactive)	16.9 µM (inactive)	17.8 µM (inactive)	–	48.8 µM (inactive)	10.9 µM (inactive)	–	23.3 µM (inactive)	> 26.5 µM (inactive)	19.7 µM (inactive)	20.1 µM (inactive)	45.7 µM (inactive)	> 56.8 µM (inactive)	29 µM (inactive)
c1ccc2c(c1)SCCCSCCCS2	> 100 µM (inactive)	> 100 µM (inactive)	> 10 µM (inactive)	> 100 µM (inactive)	> 100 µM (inactive)	–	–	> 100 µM (inactive)	> 100 µM (inactive)	> 100 µM (inactive)	> 100 µM (inactive)	> 100 µM (inactive)	> 100 µM (inactive)	–	> 100 µM (inactive)	> 100 µM (inactive)	> 100 µM (inactive)	–	60.1 µM (inactive)
CC(C(=O)O)C(C)(O)C(=O)O (stereo unspecified)	> 100 µM (inactive)	–	> 100 µM (inactive)	> 100 µM (inactive)	> 100 µM (inactive)	> 100 µM (inactive)	> 100 µM (inactive)	> 100 µM (inactive)	> 100 µM (inactive)	61.8 µM (inactive)	> 100 µM (inactive)	> 100 µM (inactive)	–	> 100 µM (inactive)	> 100 µM (inactive)	> 100 µM (inactive)	> 100 µM (inactive)	> 100 µM (inactive)	–
COC(=O)C1(Cc2ccccc2)Cc2ccccc2C1=O (stereo unspecified)	35.8 µM (inactive)	72.1 µM (inactive)	45.3 µM (inactive)	72.8 µM (inactive)	43.7 µM (inactive)	16.3 µM (inactive)	35.6 µM (inactive)	45.8 µM (inactive)	25.7 µM (inactive)	> 100 µM (inactive)	50.8 µM (inactive)	44.9 µM (inactive)	66.8 µM (inactive)	19.1 µM (inactive)	35.2 µM (inactive)	–	57 µM (inactive)	–	59.2 µM (inactive)
CC(=O)OC12c3ccccc3C(c3ccccc31)C1C(=O)N(N=C(C)C)C(=O)C12 (stereo unspecified)	> 100 µM (inactive)	> 100 µM (inactive)	> 100 µM (inactive)	> 100 µM (inactive)	> 100 µM (inactive)	63.2 µM (inactive)	> 100 µM (inactive)	> 100 µM (inactive)	> 100 µM (inactive)	> 100 µM (inactive)	> 100 µM (inactive)	> 100 µM (inactive)	> 100 µM (inactive)	–	> 100 µM (inactive)	> 100 µM (inactive)	> 100 µM (inactive)	–	–
CC(=O)/C(=C/N1CC(=O)NC1=S)C(=O)Nc1ccccc1C	–	> 100 µM (inactive)	> 100 µM (inactive)	> 100 µM (inactive)	> 100 µM (inactive)	–	> 10 µM (inactive)	> 100 µM (inactive)	> 100 µM (inactive)	> 100 µM (inactive)	> 100 µM (inactive)	–	> 100 µM (inactive)	> 100 µM (inactive)	> 100 µM (inactive)	> 100 µM (inactive)	> 100 µM (inactive)	> 100 µM (inactive)	> 100 µM (inactive)
CCOc1ccc(/C=C2\NC(=S)N(/C=C3\C(=O)Oc4ccccc4C3=O)C2=O)cc1	15.1 µM (inactive)	26.1 µM (inactive)	32.5 µM (inactive)	24.8 µM (inactive)	28.9 µM (inactive)	–	24.7 µM (inactive)	30 µM (inactive)	23.1 µM (inactive)	40.2 µM (inactive)	19.4 µM (inactive)	18.1 µM (inactive)	20.4 µM (inactive)	17.3 µM (inactive)	19.7 µM (inactive)	22.8 µM (inactive)	20.2 µM (inactive)	–	22.8 µM (inactive)
B.CC(=O)OC1CN2CCC1CC2 (stereo unspecified)	> 100 µM (inactive)	> 100 µM (inactive)	> 100 µM (inactive)	> 100 µM (inactive)	–	> 100 µM (inactive)	> 100 µM (inactive)	> 100 µM (inactive)	> 100 µM (inactive)	> 100 µM (inactive)	> 100 µM (inactive)	> 100 µM (inactive)	> 100 µM (inactive)	> 100 µM (inactive)	> 100 µM (inactive)	–	> 100 µM (inactive)	> 100 µM (inactive)	–
CC(C)(C)OC(=O)N1NC(c2ccccc2)CC1c1ccccc1 (stereo unspecified)	19 µM (inactive)	50.8 µM (inactive)	26.7 µM (inactive)	–	–	–	29.1 µM (inactive)	17.4 µM (inactive)	20.2 µM (inactive)	28.4 µM (inactive)	35.3 µM (inactive)	–	33.6 µM (inactive)	–	45.1 µM (inactive)	–	37.3 µM (inactive)	27.8 µM (inactive)	37.7 µM (inactive)
Cc1cc(OC(=O)NCn2cc(-c3ccccc3)nn2)ccc1Cl	72.8 µM (inactive)	69.3 µM (inactive)	73.5 µM (inactive)	37.7 µM (inactive)	66.8 µM (inactive)	88.1 µM (inactive)	> 100 µM (inactive)	96.6 µM (inactive)	83.4 µM (inactive)	> 100 µM (inactive)	92.7 µM (inactive)	> 100 µM (inactive)	> 100 µM (inactive)	48.3 µM (inactive)	> 100 µM (inactive)	91.2 µM (inactive)	> 100 µM (inactive)	–	67.1 µM (inactive)
COC(=O)CCC1(C)C2CCC1/C(=N/O)C2 (stereo unspecified)	> 100 µM (inactive)	> 100 µM (inactive)	> 100 µM (inactive)	> 100 µM (inactive)	–	> 100 µM (inactive)	> 100 µM (inactive)	> 100 µM (inactive)	> 100 µM (inactive)	> 100 µM (inactive)	> 100 µM (inactive)	> 100 µM (inactive)	> 100 µM (inactive)	> 100 µM (inactive)	> 100 µM (inactive)	> 100 µM (inactive)	> 100 µM (inactive)	> 100 µM (inactive)	–
O=C(C/N=C(\CN(c1ccccc1)c1ccccc1)Oc1c([N+](=O)[O-])cc([N+](=O)[O-])cc1[N+](=O)[O-])N1CCNCC1	> 100 µM (inactive)	> 100 µM (inactive)	> 100 µM (inactive)	56.8 µM (inactive)	–	> 100 µM (inactive)	> 100 µM (inactive)	> 100 µM (inactive)	–	> 100 µM (inactive)	61.7 µM (inactive)	> 100 µM (inactive)	> 100 µM (inactive)	–	> 100 µM (inactive)	> 100 µM (inactive)	> 100 µM (inactive)	–	67.5 µM (inactive)
Cc1ccc(N2CCc3c(C)c(C#N)c4nc5ccccc5n4c32)cc1	> 100 µM (inactive)	36.6 µM (inactive)	> 100 µM (inactive)	68.1 µM (inactive)	> 100 µM (inactive)	> 100 µM (inactive)	> 100 µM (inactive)	> 100 µM (inactive)	> 100 µM (inactive)	> 100 µM (inactive)	49.3 µM (inactive)	> 100 µM (inactive)	41.6 µM (inactive)	23.8 µM (inactive)	> 100 µM (inactive)	37.4 µM (inactive)	> 100 µM (inactive)	–	10.4 µM (inactive)
Nc1ccc(/N=N/c2ccc(-c3ccc(/N=N/c4c(S(=O)(=O)O)cc5cc(S(=O)(=O)O)c(/N=N/c6ccc([N+](=O)[O-])cc6)c(N)c5c4O)cc3)cc2)c2cc(S(=O)(=O)O)ccc12	> 100 µM (inactive)	> 100 µM (inactive)	> 100 µM (inactive)	> 100 µM (inactive)	> 100 µM (inactive)	> 100 µM (inactive)	> 100 µM (inactive)	> 100 µM (inactive)	–	> 100 µM (inactive)	> 100 µM (inactive)	–	84.5 µM (inactive)	> 100 µM (inactive)	> 100 µM (inactive)	> 100 µM (inactive)	> 100 µM (inactive)	> 100 µM (inactive)	97.7 µM (inactive)
O=C(NCc1ccccc1)c1nn[nH]c1O	> 100 µM (inactive)	> 100 µM (inactive)	> 100 µM (inactive)	> 100 µM (inactive)	–	> 100 µM (inactive)	> 100 µM (inactive)	> 100 µM (inactive)	> 100 µM (inactive)	> 100 µM (inactive)	> 100 µM (inactive)	> 100 µM (inactive)	> 100 µM (inactive)	> 100 µM (inactive)	> 100 µM (inactive)	> 100 µM (inactive)	> 100 µM (inactive)	–	–
